According to the NIST ThermoML archive (doi:10.1021/je0496995):

Assay: mn = molality of the nth substance listed, in mol/kg
Settings: Liquid; for viscosity: 101.3 kPa, Capillary tube (Ostwald / Ubbelohde) method; for mass density: 101.33 kPa, Pycnometric method

O=C(O)c1cccnc1 [3-carboxylpyridine] + Cc1cccnc1
Settings | mass density [kg/m3] | viscosity [mPa·s]
293.15 K, m1 = 0.02469 | 956.7 | 0.9504
293.15 K, m1 = 0.107 | 959.5 | 0.9659
293.15 K, m1 = 0.2134 | 964.1 | 0.9908
293.15 K, m1 = 0.319 | 969.5 | 1.015
293.15 K, m1 = 0.424 | 975.8 | 1.05
293.15 K, m1 = 0.5284 | 983 | 1.107
303.15 K, m1 = 0.02469 | 947.3 | 0.8363
303.15 K, m1 = 0.107 | 950.1 | 0.8514
303.15 K, m1 = 0.2134 | 954.6 | 0.8764
303.15 K, m1 = 0.319 | 960 | 0.9018
303.15 K, m1 = 0.424 | 966.4 | 0.9368
303.15 K, m1 = 0.5284 | 973.5 | 0.9891
313.15 K, m1 = 0.02469 | 938.4 | 0.7399
313.15 K, m1 = 0.107 | 941.2 | 0.7553
313.15 K, m1 = 0.2134 | 945.7 | 0.7804
313.15 K, m1 = 0.319 | 951 | 0.8048
313.15 K, m1 = 0.424 | 957.5 | 0.8396
313.15 K, m1 = 0.5284 | 964.7 | 0.8961
323.15 K, m1 = 0.02469 | 929 | 0.661
323.15 K, m1 = 0.107 | 931.8 | 0.6762
323.15 K, m1 = 0.2134 | 936.3 | 0.7014
323.15 K, m1 = 0.319 | 941.5 | 0.7265
323.15 K, m1 = 0.424 | 947.8 | 0.7613
323.15 K, m1 = 0.5284 | 955.2 | 0.8173
333.15 K, m1 = 0.02469 | 920 | 0.5981
333.15 K, m1 = 0.107 | 922.8 | 0.6134
333.15 K, m1 = 0.2134 | 927.2 | 0.6381
333.15 K, m1 = 0.319 | 932.5 | 0.6632
333.15 K, m1 = 0.424 | 938.7 | 0.6983
333.15 K, m1 = 0.5284 | 946.2 | 0.7541
343.15 K, m1 = 0.02469 | 911 | 0.5434
343.15 K, m1 = 0.107 | 913.8 | 0.5594
343.15 K, m1 = 0.2134 | 918.2 | 0.5833
343.15 K, m1 = 0.319 | 923.5 | 0.6086
343.15 K, m1 = 0.424 | 929.7 | 0.6431
343.15 K, m1 = 0.5284 | 937.2 | 0.6997
